The experiment concerns the target AsrK (vfu_B00258). Nature of the experiment: ITC in borate-depleted buffer; also inhibits autokinase activity of purified full-length AsrK. In kind it is binding, Vibrio furnissii.

Usually Kd stands for the constant that tells how readily two partners part at equilibrium. High values mean weaker binding, low ones tighter binding. In turn, `CC(=O)C(=O)[C@@H](O)CO` [DPD, 4,5-dihydroxy-2,3-pentanedione] showed a Kd of 38 ± 4 nM.

The record behind these values is article PMC11796354, “Autoinducer-2 enhances the defense of Vibrio furnissii against oxidative stress and DNA damage by modulation of c-di-GMP signaling via a two-component system” (mBio, 2025).
